Paper PMC5175396, “Cytotoxicity of Plumbagin, Rapanone and 12 other naturally occurring Quinones from Kenyan Flora towards human carcinoma cells” (BMC Pharmacology & Toxicology, 2016)

system: A549 human non-small cell lung cancer (NSCLC) cell line; assay: Neutral red (NR) uptake cytotoxicity assay, A549; format: cell-based; conditions: Homo sapiens, A549, 72 h, neutral red assay, 72 h incubation
Description: (§1) Six human cancer cell lines and one normal cell line were used in this study. They included A549 human non-small cell lung cancer (NSCLC) cell line, obtained from the Institute for Fermentation, Osaka (IFO, Japan) and provided by Prof. Dr. Tansu Koparal (Anadolu University, Eskisehir, Turkey), SPC212 human mesothelioma cell line obtained from American Type Culture Collection (ATCC) and provided by Dr. Asuman Demiroğlu Zergeroğlu (Gebze Technical University, Kocaeli, Turkey), DLD-1 colorectal adenocarcinoma cell lines obtained from ATCC (CCL-221), Caco2 colorectal adenocarcinoma cells (ATCC, HTB-37) obtained from the ŞAP Institute of Turkey (Ankara), HepG2 hepatocarcinoma cells (ATCC, HB-8065) and MCF-7 breast adenocarcinoma cells (ATCC, HTB-22) were provided by Prof. Dr. Tansu Koparal (Anadolu University, Eskisehir, Turkey). The normal CRL2120 human skin fibroblasts were obtained from ATCC [CCD1094Sk (ATCC, CRL-2120)]. The cells were maintained as a monolayer in DMEM medium (Sigma-aldrich, Munich, Germany) medium supplemented with 10% fetal calf serum and 1% penicillin (100 U/mL)-streptomycin (100 μg/mL) in a humidified 5% CO2 atmosphere at 37 °C.
(§2) The cytotoxicity of samples was performed by NR uptake assay as previously described. This method is based on the ability of viable cells to incorporate and bind the supravital dye NR in the lysosomes. […] Briefly, cells were detached by treatment with 0.25% trypsin/EDTA (Invitrogen) and an aliquot of 1 × 10^4 cells was placed in each well of a 96-well cell culture plate (Thermo Scientific, Germany) in a total volume of 200 μL. The cells were allowed to attach overnight and subsequently treated with different concentrations of the 14 compounds. Each of the studied samples was immediately added in varying concentrations in additional 100 μL of culture medium to obtain a total volume of 200 μL/well. After 72 h incubation in humidified 5% CO2 atmosphere at 37 °C, the medium was removed and 200 μL fresh medium containing 50 μg/mL NR was added to each well and incubation continued for an additional 3 h at 37 °C in 5% CO2 atmosphere. The dye medium was then removed and each well was then washed rapidly with 200 μL phosphate buffer saline (PBS) followed by addition of 200 μL of acetic acid-water-ethanol in water (1:49:50). The plates were kept for 15 min at room temperature to extract the dye and then shaken for a few minutes on a GFL 3012 shaker (Gesellschaft für Labortechnik mbH, Burgwedel, Germany). Absorbance was measured on ELx 808 Ultra Microplate Reader (Biotek) equipped with a 540 nm filter. Each assay was done at least three times, with three replicates each. The viability was evaluated based on a comparison with untreated cells. The IC50 values represent the sample’s concentrations required to inhibit 50% of cell proliferation and were calculated from a calibration curve by linear regression using Microsoft Excel.

Compound | IC50 [µM]
CCCCCCCCCCCCCCCC1=C(O)C(=O)C=C(O)C1=O [Compound 10, 2,5-dihydroxy-3-pentadecyl-2,5-cyclohexadiene-1,4-dione] | 43.3 ± 2.72
Cc1cc(O)c2c(c1)C(=O)c1cccc(O)c1C2=O [Compound 1, chrysophanol] | 52.2 ± 5.51
CCCCC=CCCCCCCCCCCCCCC1=C(OC)C(=O)C=C(OC)C1=O [Compound 12, 2,5 dimethoxy-6-(14-nonadecenyl)-1,4-benzoquinone] | > 129
CCC1=C(O)C(=O)C=C(O)C1=O [Compound 5, 2,5-dihydroxy-3-ethyl-2,5-cyclohexadiene-1,4-dione] | > 238
COC(=O)c1c(O)cc2c(c1C)C(=O)c1c(O)cc(O)cc1C2=O [Compound 3, 3,6,8-trihydroxy-1-methylanthraquinone-2-carboxylic acid methyl ester] | > 122

same assay, conditions: IC50 in CRL2120 normal fibroblasts divided by IC50 in A549

Compound | selectivity index A549
CCCCCCCCCCCCCCCC1=C(O)C(=O)C=C(O)C1=O [Compound 10, 2,5-dihydroxy-3-pentadecyl-2,5-cyclohexadiene-1,4-dione] | > 2.87
Cc1cc(O)c2c(c1)C(=O)c1cccc(O)c1C2=O [Compound 1, chrysophanol] | > 3.01

system: SPC212 human mesothelioma cell line; assay: Neutral red (NR) uptake cytotoxicity assay, SPC212; format: cell-based; conditions: Homo sapiens, 72 h, neutral red assay, 72 h incubation; read-out: IC50 SPC212
Description: as §1
as §2, with “lysosomes. The procedure is cheaper and more sensitive than other cytotoxicity tests.” for “lysosomes.”

Compound | IC50 [µM]
CCCCCCCCCCCCCCCC1=C(O)C(=O)C=C(O)C1=O [Compound 10, 2,5-dihydroxy-3-pentadecyl-2,5-cyclohexadiene-1,4-dione] | < 10
Cc1cc(O)c2c(c1)C(=O)c1cccc(O)c1C2=O [Compound 1, chrysophanol] | 146 ± 10.6
CCCCC=CCCCCCCCCCCCCCC1=C(OC)C(=O)C=C(OC)C1=O [Compound 12, 2,5 dimethoxy-6-(14-nonadecenyl)-1,4-benzoquinone] | > 129
CCC1=C(O)C(=O)C=C(O)C1=O [Compound 5, 2,5-dihydroxy-3-ethyl-2,5-cyclohexadiene-1,4-dione] | > 238
COC(=O)c1c(O)cc2c(c1C)C(=O)c1c(O)cc(O)cc1C2=O [Compound 3, 3,6,8-trihydroxy-1-methylanthraquinone-2-carboxylic acid methyl ester] | > 122

same assay, conditions: IC50 in CRL2120 normal fibroblasts divided by IC50 in SPC212

Compound | selectivity index SPC212
CCCCCCCCCCCCCCCC1=C(O)C(=O)C=C(O)C1=O [Compound 10, 2,5-dihydroxy-3-pentadecyl-2,5-cyclohexadiene-1,4-dione] | > 14.81
Cc1cc(O)c2c(c1)C(=O)c1cccc(O)c1C2=O [Compound 1, chrysophanol] | > 1.08

same assay, conditions: neutral red assay, 72 h incubation; read-out: IC50 SPC212

Compound | IC50 [µM]
CCCCCCCCCCCCCCCC1=C(O)C(=O)C=C(O)C1=O [Compound 10, 2,5-dihydroxy-3-pentadecyl-2,5-cyclohexadiene-1,4-dione] | 8.39 ± 0.48

system: DLD-1 colorectal adenocarcinoma cell lines; assay: Neutral red (NR) uptake cytotoxicity assay, DLD-1; format: cell-based, human; conditions: Homo sapiens, DLD-1; neutral red assay, 72 h incubation; read-out: IC50 DLD-1
Description: as §1
as §2, with “lysosomes. The procedure is cheaper and more sensitive than other cytotoxicity tests.” for “lysosomes.”

Compound | IC50 [µM]
CCCCCCCCCCCCCCCC1=C(O)C(=O)C=C(O)C1=O [Compound 10, 2,5-dihydroxy-3-pentadecyl-2,5-cyclohexadiene-1,4-dione] | 51.2 ± 5.54
Cc1cc(O)c2c(c1)C(=O)c1cccc(O)c1C2=O [Compound 1, chrysophanol] | > 157
CCCCC=CCCCCCCCCCCCCCC1=C(OC)C(=O)C=C(OC)C1=O [Compound 12, 2,5 dimethoxy-6-(14-nonadecenyl)-1,4-benzoquinone] | > 129
CCC1=C(O)C(=O)C=C(O)C1=O [Compound 5, 2,5-dihydroxy-3-ethyl-2,5-cyclohexadiene-1,4-dione] | > 238
COC(=O)c1c(O)cc2c(c1C)C(=O)c1c(O)cc(O)cc1C2=O [Compound 3, 3,6,8-trihydroxy-1-methylanthraquinone-2-carboxylic acid methyl ester] | > 122

same assay, conditions: IC50 in CRL2120 normal fibroblasts divided by IC50 in DLD-1

Compound | selectivity index DLD-1
CCCCCCCCCCCCCCCC1=C(O)C(=O)C=C(O)C1=O [Compound 10, 2,5-dihydroxy-3-pentadecyl-2,5-cyclohexadiene-1,4-dione] | > 2.43

system: not listed separately; assay: Neutral red (NR) uptake cytotoxicity assay, Caco-2; format: cell-based, human; conditions: human; IC50 in CRL2120 normal fibroblasts divided by IC50 in Caco-2; read-out: selectivity index Caco-2 (converted)
Description: as §1
as §2, with “lysosomes. The procedure is cheaper and more sensitive than other cytotoxicity tests.” for “lysosomes.”

Compound | selectivity ratio at 72 h
CCCCCCCCCCCCCCCC1=C(O)C(=O)C=C(O)C1=O [Compound 10, 2,5-dihydroxy-3-pentadecyl-2,5-cyclohexadiene-1,4-dione] | > 4.47

system: Caco2 colorectal adenocarcinoma cells; assay: Neutral red (NR) uptake cytotoxicity assay, Caco-2; format: cell-based, human; conditions: Homo sapiens, Caco-2; neutral red assay, 72 h incubation
Description: as §1
as §2, with “lysosomes. The procedure is cheaper and more sensitive than other cytotoxicity tests.” for “lysosomes.”

Compound | IC50 [µM]
CCCCCCCCCCCCCCCC1=C(O)C(=O)C=C(O)C1=O [Compound 10, 2,5-dihydroxy-3-pentadecyl-2,5-cyclohexadiene-1,4-dione] | 27.8 ± 2.03
Cc1cc(O)c2c(c1)C(=O)c1cccc(O)c1C2=O [Compound 1, chrysophanol] | > 157
CCCCC=CCCCCCCCCCCCCCC1=C(OC)C(=O)C=C(OC)C1=O [Compound 12, 2,5 dimethoxy-6-(14-nonadecenyl)-1,4-benzoquinone] | > 129
CCC1=C(O)C(=O)C=C(O)C1=O [Compound 5, 2,5-dihydroxy-3-ethyl-2,5-cyclohexadiene-1,4-dione] | > 238
COC(=O)c1c(O)cc2c(c1C)C(=O)c1c(O)cc(O)cc1C2=O [Compound 3, 3,6,8-trihydroxy-1-methylanthraquinone-2-carboxylic acid methyl ester] | > 122

system: MCF-7 breast adenocarcinoma cells; assay: Neutral red (NR) uptake cytotoxicity assay, MCF-7; format: cell-based, human; conditions: Homo sapiens, MCF7, 72 h, neutral red assay, 72 h incubation; read-out: IC50 MCF-7
Description: as §1
as §2, with “lysosomes. The procedure is cheaper and more sensitive than other cytotoxicity tests.” for “lysosomes.”

Compound | IC50 [µM]
CCCCCCCCCCCCCCCC1=C(O)C(=O)C=C(O)C1=O [Compound 10, 2,5-dihydroxy-3-pentadecyl-2,5-cyclohexadiene-1,4-dione] | 30.4 ± 8.64
Cc1cc(O)c2c(c1)C(=O)c1cccc(O)c1C2=O [Compound 1, chrysophanol] | > 157
CCCCC=CCCCCCCCCCCCCCC1=C(OC)C(=O)C=C(OC)C1=O [Compound 12, 2,5 dimethoxy-6-(14-nonadecenyl)-1,4-benzoquinone] | > 129
CCC1=C(O)C(=O)C=C(O)C1=O [Compound 5, 2,5-dihydroxy-3-ethyl-2,5-cyclohexadiene-1,4-dione] | > 238
COC(=O)c1c(O)cc2c(c1C)C(=O)c1c(O)cc(O)cc1C2=O [Compound 3, 3,6,8-trihydroxy-1-methylanthraquinone-2-carboxylic acid methyl ester] | > 122

same assay, conditions: IC50 in CRL2120 normal fibroblasts divided by IC50 in MCF-7

Compound | selectivity index MCF-7
CCCCCCCCCCCCCCCC1=C(O)C(=O)C=C(O)C1=O [Compound 10, 2,5-dihydroxy-3-pentadecyl-2,5-cyclohexadiene-1,4-dione] | > 4.09

system: HepG2 hepatocarcinoma cells; assay: Neutral red (NR) uptake cytotoxicity assay, HepG2; format: cell-based, human; conditions: Homo sapiens, HepG2; neutral red assay, 72 h incubation; read-out: IC50 HepG2
Description: as §1
as §2, with “lysosomes. The procedure is cheaper and more sensitive than other cytotoxicity tests.” for “lysosomes.”

Compound | IC50 [µM]
CCCCCCCCCCCCCCCC1=C(O)C(=O)C=C(O)C1=O [Compound 10, 2,5-dihydroxy-3-pentadecyl-2,5-cyclohexadiene-1,4-dione] | 48.4 ± 3.73
Cc1cc(O)c2c(c1)C(=O)c1cccc(O)c1C2=O [Compound 1, chrysophanol] | > 157
CCCCC=CCCCCCCCCCCCCCC1=C(OC)C(=O)C=C(OC)C1=O [Compound 12, 2,5 dimethoxy-6-(14-nonadecenyl)-1,4-benzoquinone] | > 129
CCC1=C(O)C(=O)C=C(O)C1=O [Compound 5, 2,5-dihydroxy-3-ethyl-2,5-cyclohexadiene-1,4-dione] | > 238
COC(=O)c1c(O)cc2c(c1C)C(=O)c1c(O)cc(O)cc1C2=O [Compound 3, 3,6,8-trihydroxy-1-methylanthraquinone-2-carboxylic acid methyl ester] | > 122

same assay, conditions: IC50 in CRL2120 normal fibroblasts divided by IC50 in HepG2

Compound | selectivity index HepG2
CCCCCCCCCCCCCCCC1=C(O)C(=O)C=C(O)C1=O [Compound 10, 2,5-dihydroxy-3-pentadecyl-2,5-cyclohexadiene-1,4-dione] | > 2.57

system: normal CRL2120 human skin fibroblasts; assay: Neutral red (NR) uptake cytotoxicity assay, normal CRL2120 fibroblasts; format: cell-based; conditions: Skin fibroblast, 72 h incubation
Description: as §1
as §2, with “lysosomes. The procedure is cheaper and more sensitive than other cytotoxicity tests.” for “lysosomes.”

Compound | IC50 [µM]
CCCCCCCCCCCCCCCC1=C(O)C(=O)C=C(O)C1=O [Compound 10, 2,5-dihydroxy-3-pentadecyl-2,5-cyclohexadiene-1,4-dione] | > 124
Cc1cc(O)c2c(c1)C(=O)c1cccc(O)c1C2=O [Compound 1, chrysophanol] | > 157
CCCCC=CCCCCCCCCCCCCCC1=C(OC)C(=O)C=C(OC)C1=O [Compound 12, 2,5 dimethoxy-6-(14-nonadecenyl)-1,4-benzoquinone] | > 129
CCC1=C(O)C(=O)C=C(O)C1=O [Compound 5, 2,5-dihydroxy-3-ethyl-2,5-cyclohexadiene-1,4-dione] | 95.5 ± 5.64
COC(=O)c1c(O)cc2c(c1C)C(=O)c1c(O)cc(O)cc1C2=O [Compound 3, 3,6,8-trihydroxy-1-methylanthraquinone-2-carboxylic acid methyl ester] | > 122

system: six tested cancer cell lines (A549, SPC212, DLD-1, Caco-2, MCF-7, HepG2); assay: Neutral red uptake assay, statements over the six tested cancer cell lines; format: cell-based, human; conditions: Homo sapiens, bound valid for all six cancer cell lines; neutral red assay
Description: as §1
as §2, with “lysosomes. The procedure is cheaper and more sensitive than other cytotoxicity tests.” for “lysosomes.”

Compound | IC50 [µM]
CCCCCCCCCCCCCCCC1=C(O)C(=O)C=C(O)C1=O [Compound 10, 2,5-dihydroxy-3-pentadecyl-2,5-cyclohexadiene-1,4-dione] | < 100
CCCCC=CCCCCCCCCCCCCCC1=C(OC)C(=O)C=C(OC)C1=O [Compound 12, 2,5 dimethoxy-6-(14-nonadecenyl)-1,4-benzoquinone] | > 120
CCC1=C(O)C(=O)C=C(O)C1=O [Compound 5, 2,5-dihydroxy-3-ethyl-2,5-cyclohexadiene-1,4-dione] | > 120
COC(=O)c1c(O)cc2c(c1C)C(=O)c1c(O)cc(O)cc1C2=O [Compound 3, 3,6,8-trihydroxy-1-methylanthraquinone-2-carboxylic acid methyl ester] | > 120

same assay, conditions: out of six cancer cell lines

Compound | tested cancer cell lines in which recordable IC50 values were obtained
Cc1cc(O)c2c(c1)C(=O)c1cccc(O)c1C2=O [Compound 1, chrysophanol] | 2/6
